According to patent publication US9655870B2, “Homeopathic drug composition and methods of use thereof” (priority 2002, dated 2017):

Columns and labels:
[1] = Single-dose toxicity study; settings: both sexes, mouse, in vivo, IV bolus, adult male and female CD-1 mice, read-out: maximally tolerated dose (MTD)
Procedure: (§1) Thus, the toxic doses levels of the compounds appear high (assuming a similar biochemical pathway and not correcting for a different surface-area-to-weight ratio), a dose of 9,975 mg (9.9 g) would not be lethal for a 75-kg person.

[2] = Acute toxicology studies (MidAtlantic Bio-Research); format: in vivo
Procedure: as §1

[3] = system: animals; test: Repeated daily dose toxicity study (Dovetail Technologies, Inc.); format: in vivo
Procedure: as §1

[4] = system: normal volunteers; test: Double-blind placebo-controlled homeopathic proving; format: in vivo, human
Procedure: (§2) Safety: As of Mar. […] As of Jul. […] Many of those patients report improvements in their conditions (see below)
Thirty-nine (39) patients have completed the first homeopathic proving trial. The study design was a true double blind and placebo-controlled.
This double-blind placebo-controlled “proving” study was performed by David Riley. (Riley, Proving Report—Taurox SB. David Riley, M.D., Integrative Medicine Institute, Apr. 16, 2001, incorporated by reference in its entirety herein).

[5] = system: patients with various complaints; test: Clinical trials in patients with various complaints; format: in vivo, human
From the text: as §2

[6] = system: patients with at least moderate fatigue; test: Decreased fatigue study (Example 1); format: in vivo, human

O=C(CCNC(=O)OCc1ccccc1)NCCS(=O)(=O)O [Taurox SB]
MTD [1]: ~150 mg/kg
dose at which an acute lethal response was demonstrated ([2]; acute toxicology): exceeding 133 mg/kg
proposed dose lower than the toxic dose ([2]; animal toxicity studies): over 1 million
dose that would not be lethal for a 75-kg person ([2]; extrapolated from animal data, not corrected for surface-area-to-weight ratio): 9,975 mg
morbidity/mortality ([3]; 400 ug/kg daily for 9 days, 14-day post-administration period): no morbidity/mortality
weight gain ([3]; 400 ug/kg daily for 9 days, 14-day post-administration period, compared to saline-injected controls): all gained the appropriate amount of weight
gross necropsies ([3]; 400 ug/kg daily for 9 days, following euthanasia): no abnormal findings
toxic side effects ([3]; oral daily doses of 400 ug/kg for 9 days): no toxic side effects were observed
toxic side effects ([3]; subcutaneous daily doses of 400 ug/kg for 9 days): no toxic side effects were observed
severe adverse effects ([4]; 39 normal volunteers, 14 to 28 doses): without any severe adverse effects
subjects identified as having physiologic affects by the blinded evaluating physician ([4]; placebo 26%): 92%
severe adverse effects ([5]; over 40 patients, 1-6 months, 1-2 drops of 8× or 6× daily): without any severe adverse effects
lymphocyte count ([5]; patient 102 (lymphocytopenia), 8X dose): improved
energy, well-being and pain ([5]; patient 102, 8X dose): improvements in energy, an overall feeling of well-being and less pain
appetite and weight ([5]; patient 401 (lung cancer, chemotherapy), 8X dose): able to maintain their appetite and weight
Irritable Bowel Syndrome (IBS) ([5]; patient 507): improvement in IBS
PMS ([5]; patient 702, 8X dose): less severe PMS
ability to work ([5]; patient 702, 8X dose): improved ability to work
discomfort from uterine fibroids ([5]; patient 702, 8X dose): less discomfort from the fibroids
Irritable Bowel Syndrome (IBS) ([5]; patient 703): complete resolution of IBS
decrease of average fatigue score ([6]; eight patients, p=0.002): 43%
fatigue ([6]; patient 101, both doses (6X, 8X)): less fatigue
previously required daily naps ([6]; patient 101, upon initiation of 6X): became unnecessary
Fatigue (lower numbers indicate less fatigue) ([6]; patient 101, week 0): 28 pts
Fatigue (lower numbers indicate less fatigue) ([6]; patient 101, week 1): 27 pts
Fatigue (lower numbers indicate less fatigue) ([6]; patient 101, week 2): 24 pts
Fatigue (lower numbers indicate less fatigue) ([6]; patient 101, week 3): 24 pts
Fatigue (lower numbers indicate less fatigue) ([6]; patient 101, week 4): 27 pts
Fatigue (lower numbers indicate less fatigue) ([6]; patient 101, week 5): 26 pts
Fatigue (lower numbers indicate less fatigue) ([6]; patient 101, week 6): 20 pts
Fatigue (lower numbers indicate less fatigue) ([6]; patient 101, week 7): 16 pts
Fatigue (lower numbers indicate less fatigue) ([6]; patient 101, week 8): 16 pts
Fatigue (lower numbers indicate less fatigue) ([6]; patient 101, week 9): 20 pts
Fatigue (lower numbers indicate less fatigue) ([6]; patient 101, week 10): 14 pts
Fatigue (lower numbers indicate less fatigue) ([6]; patient 101, week 11): 14 pts
Fatigue (lower numbers indicate less fatigue) ([6]; patient 101, week 12): 19 pts
Fatigue (lower numbers indicate less fatigue) ([6]; patient 101, week 13): 19 pts
Fatigue (lower numbers indicate less fatigue) ([6]; patient 101, week 14): 20 pts
Fatigue (lower numbers indicate less fatigue) ([6]; patient 101, week 16): 21 pts
Fatigue (lower numbers indicate less fatigue) ([6]; patient 101, week 17): 19 pts
Fatigue (lower numbers indicate less fatigue) ([6]; patient 101, week 18): 19 pts
Fatigue (lower numbers indicate less fatigue) ([6]; patient 101, week 19): 17 pts
Fatigue (lower numbers indicate less fatigue) ([6]; patient 101, week 20): 15 pts
Fatigue (lower numbers indicate less fatigue) ([6]; patient 101, week 21): 16 pts
Fatigue (lower numbers indicate less fatigue) ([6]; patient 101, week 22): 16 pts
Fatigue (lower numbers indicate less fatigue) ([6]; patient 102, week 0): 41 pts
Fatigue (lower numbers indicate less fatigue) ([6]; patient 102, week 1): 48 pts
Fatigue (lower numbers indicate less fatigue) ([6]; patient 102, week 2): 47 pts
Fatigue (lower numbers indicate less fatigue) ([6]; patient 102, week 3): 48 pts
Fatigue (lower numbers indicate less fatigue) ([6]; patient 102, week 4): 40 pts
Fatigue (lower numbers indicate less fatigue) ([6]; patient 102, week 5): 35 pts
Fatigue (lower numbers indicate less fatigue) ([6]; patient 102, week 6): 48 pts
Fatigue (lower numbers indicate less fatigue) ([6]; patient 102, week 7): 48 pts
Fatigue (lower numbers indicate less fatigue) ([6]; patient 102, week 8): 48 pts
Fatigue (lower numbers indicate less fatigue) ([6]; patient 102, week 9): 46 pts
Fatigue (lower numbers indicate less fatigue) ([6]; patient 102, week 10): 37 pts
Fatigue (lower numbers indicate less fatigue) ([6]; patient 102, week 11): 35 pts
Fatigue (lower numbers indicate less fatigue) ([6]; patient 102, week 12): 22 pts
Fatigue (lower numbers indicate less fatigue) ([6]; patient 102, week 13): 22 pts
Fatigue (lower numbers indicate less fatigue) ([6]; patient 102, week 14): 22 pts
Fatigue (lower numbers indicate less fatigue) ([6]; patient 103, week 0): 37 pts
Fatigue (lower numbers indicate less fatigue) ([6]; patient 103, week 1): 31 pts
Fatigue (lower numbers indicate less fatigue) ([6]; patient 103, week 3): 24 pts
